Assay results taken from paper PMC9917099, “The Mycotoxin Patulin Inhibits the Mitochondrial Carnitine/Acylcarnitine Carrier (SLC25A20) by Interaction with Cys136 Implications for Human Health” (International Journal of Molecular Sciences, 2023).

Molecular target: T1, CAC in intact rat liver mitochondria (Rattus norvegicus, UniProt P97521)
T1 construct: the native protein extracted from rat liver mitochondria; from tissue; host or cells: rat liver mitochondria (Triton X-100 extract)
T1 sequence (P97521 1-301): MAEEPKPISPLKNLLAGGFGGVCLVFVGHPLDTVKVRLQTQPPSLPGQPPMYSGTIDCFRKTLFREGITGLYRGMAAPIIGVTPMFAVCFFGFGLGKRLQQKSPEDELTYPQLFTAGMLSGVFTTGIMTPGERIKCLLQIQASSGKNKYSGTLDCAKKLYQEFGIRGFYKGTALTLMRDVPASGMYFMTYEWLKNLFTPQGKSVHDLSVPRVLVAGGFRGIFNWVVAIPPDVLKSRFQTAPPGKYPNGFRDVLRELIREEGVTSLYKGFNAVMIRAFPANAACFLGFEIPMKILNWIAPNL
Test: Treatment of intact rat liver mitochondria, then solubilization, reconstitution in proteoliposomes and carnitine antiport assay
Type: biochemical
Settings: GSH alone, 5 mM, 60 min, intact mitochondria
Experimental: Figure 1 Effect of Patulin on the native carnitine/acylcarnitine carrier (CAC). (A) Dose-response analysis of proteoliposomes reconstituted with the CAC extracted from rat liver mitochondria (0.3 mg of total proteins) and incubated with PAT at the indicated concentrations for 30 min, before measuring the transport activity by adding 0.1 mM [^3H] carnitine for 10 min as described in Materials and Methods. The percentage of residual activity compared to control, without PAT treatment, is reported. The values are the means ± SD from three independent experiments. (B) Rat liver mitochondria (5 mg/100 μL) were incubated or not (control) for 60 min, with Patulin (60 μM) or GSH (5 mM) as indicated. Upon treatment, the unreacted drug was removed by washing the mitochondria in PBS 1X and then 0.3 mg mitochondria were solubilized by 3% TX-100, 10 mM PIPES pH 7.0 and reconstituted in proteoliposomes for transport assay as indicated in (A) and Materials and Methods. Black and white bars indicate without or with the addition of 5 mM dithioerythritol (DTE) 1 min before the transport assay to aliquots of each sample.
The effect of PAT on the CAC at 60 µM concentration was also detected in intact rat liver mitochondria. Upon treatment (60 min), the mitochondria were solubilized in Triton X-100 and 0.3 mg of mitochondrial extract were reconstituted in proteoliposomes for testing the transport activity of CAC (see above). […] Aliquots of intact mitochondria incubated with PAT were treated also with reduced GSH to verify whether this physiological SH-reducing agent was able to reverse the mycotoxin-protein interactions.
The recombinant CAC proteins were reconstituted in proteoliposomes as previously described. Rat liver mitochondria after purification, using the standard procedure of cell disruption and differential centrifugation were solubilized with 3% Triton X-100 in a PIPES buffer (10 mM) at pH 7.0. Herein, the mitochondrial extract (0.3 mg) were reconstituted in the liposomes as above described for the mitochondrial CAC recombinant protein, in the absence of reducing agents. The concentration of intraliposomal carnitine was 15 mM in all samples.
For the transport assay, 550 μL of proteoliposomes were passed through a Sephadex G-75 column in order to remove the external substrate. Six hundred μL of the turbid eluate were collected, divided into samples of 100 μL each, and used for transport measurement by the inhibitor-stop method. Transport was started as homoexchange by adding 0.1 mM [^3H]-carnitine to proteoliposomes containing 15 mM carnitine and, at the indicated time interval, stopped by 1.5 mM NEM (N-ethylmaleimide). The inhibitor was added together with the labelled substrate at time zero in the control samples. After finishing the transport reaction, the external radiolabel substrate was removed by gel filtration chromatography (Sephadex G-75), and the intraliposomal radioactivity was measured by liquid scintillation. Transport was measured at 25 °C. The experimental values were corrected by subtracting the controls. Transport rates were measured in 10 min, i.e., within the initial linear range of the time course.

## N[C@@H](CCC(=O)N[C@@H](CS)C(=O)NCC(=O)O)C(=O)O [GSH, glutathione, reference compound]
  transport activity compared to control: moderate increase
